These results are taken from PubChem BioAssay AID328 (DTP/NCI, 2004).

Where “and” joins values, the source holds several entries; their conditions need not be identical. Equal values may be shown once. Inconclusive results and toxic doses are left out. Residues, ends and D or L forms follow the SMILES beside them.

For this assay, the system named is BDF1 mice, P388 leukemia ip, median survival T/C. In words: NCI In Vivo Anticancer Drug Screen. Data for tumor model P388 Leukemia (intraperitoneal) in B6D2F1 (BDF1) mice. To be noted: endpoint: median survival time, higher = longer survival. The essentials:
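In tumour-bearing mice, survival after compound treatment is set against the vehicle group and given as a quotient.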

[1] abbreviates: dose: 100.0 mg/kg/injection, schedule: Q01DX009 (ip), vehicle: saline with Tween-80.
The mark [2] stands for this setting: dose: 100.0 mg/kg/injection, schedule: Q04DX003 (ip), vehicle: saline with Tween-80.
Where [3] appears, read: dose: 200.0 mg/kg/injection, schedule: Q01DX009 (ip), vehicle: saline with Tween-80.
[4] abbreviates: dose: 200.0 mg/kg/injection, schedule: Q04DX003 (ip), vehicle: saline with Tween-80.
[5] abbreviates: dose: 400.0 mg/kg/injection, schedule: Q04DX003 (ip), vehicle: saline with Tween-80.
[6] abbreviates: dose: 50.0 mg/kg/injection, schedule: Q01DX009 (ip), vehicle: saline with Tween-80.
[7] abbreviates: dose: 50.0 mg/kg/injection, schedule: Q01DX009 (ip), vehicle: saline.

For the compound `ClC1C2c3ccccc3C(C1Cl)[n+]1ccccc12` (stereo unspecified), the T/C is 100 % of control (dose: 8.75 mg/kg/injection, schedule: Q01DX009 (ip), vehicle: Klucel (hydroxypropylcellulose) (HPC)); 100 % of control (dose: 12.5 mg/kg/injection, schedule: Q04DX003 (ip), vehicle: Klucel (hydroxypropylcellulose) (HPC)); 100 % of control (dose: 17.5 mg/kg/injection, schedule: Q01DX009 (ip), vehicle: Klucel (hydroxypropylcellulose) (HPC)); 95 % of control (dose: 25.0 mg/kg/injection, schedule: Q04DX003 (ip), vehicle: Klucel (hydroxypropylcellulose) (HPC)).
As for `COC(=O)CCSCCC(=O)OC`, the T/C under setting [1] is 100 % of control; the T/C under setting [2] is 110 % of control; the T/C under setting [3] was 100 % of control; the T/C under setting [4] was 100 % of control; the T/C (dose: 400.0 mg/kg/injection, schedule: Q01DX009 (ip), vehicle: saline with Tween-80) was 100 % of control; the T/C under setting [5] was 105 % of control.
As to `CC(=O)Nc1cccc(Cl)c1C`, the T/C is, setting by setting: (dose: 8.25 mg/kg/injection, schedule: Q01DX009 (ip), vehicle: saline with Tween-80) 100 % of control; (dose: 12.4 mg/kg/injection, schedule: Q01DX009 (ip), vehicle: saline with Tween-80) 104 % of control; (dose: 18.7 mg/kg/injection, schedule: Q01DX009 (ip), vehicle: saline with Tween-80) 100 % of control; (dose: 28.2 mg/kg/injection, schedule: Q01DX009 (ip), vehicle: saline with Tween-80) 100 % of control; (dose: 50.0 mg/kg/injection, schedule: Q01DX009 (ip), vehicle: Klucel (hydroxypropylcellulose) (HPC)) 100 % of control; under setting [6], 100 % of control. Further, the T/C is 100 % of control (dose: 100.0 mg/kg/injection, schedule: Q01DX009 (ip), vehicle: Klucel (hydroxypropylcellulose) (HPC)); 95 % of control under setting [2]; 86 % of control (dose: 200.0 mg/kg/injection, schedule: Q01DX009 (ip), vehicle: Klucel (hydroxypropylcellulose) (HPC)); 100 % of control under setting [4]; 100 % of control under setting [5].
Take `O=C(c1ccccc1)N1CCC(CCO)C(O)C1Cc1c[nH]c2ccccc12` (stereo unspecified): the T/C is, setting by setting: (dose: 25.0 mg/kg/injection, schedule: Q01DX009 (ip), vehicle: saline) 100 % of control; under setting [7], 96 % of control; (dose: 50.0 mg/kg/injection, schedule: Q04DX003 (ip), vehicle: saline) 96 % of control; (dose: 100.0 mg/kg/injection, schedule: Q01DX009 (ip), vehicle: saline) 86 % of control; (dose: 100.0 mg/kg/injection, schedule: Q04DX003 (ip), vehicle: saline) 100 % of control; (dose: 200.0 mg/kg/injection, schedule: Q01DX009 (ip), vehicle: saline) 108 % of control. Moreover, the T/C reads like this: (dose: 200.0 mg/kg/injection, schedule: Q04DX003 (ip), vehicle: saline) 96 % of control; (dose: 400.0 mg/kg/injection, schedule: Q01DX009 (ip), vehicle: saline) 110 % of control; (dose: 400.0 mg/kg/injection, schedule: Q04DX003 (ip), vehicle: saline) 98 % of control.
Consider `COc1cc2c3c(c4ccc(OC)c(OC)c4c2cc1OC)CN1CCC[C@@H]1C3`, for which the T/C (dose: 1.25 mg/kg/injection, schedule: Q01DX010 (ip), vehicle: saline) was 113 % of control; the T/C (dose: 2.5 mg/kg/injection, schedule: Q01DX010 (ip), vehicle: saline) is 154 % of control; the T/C (dose: 6.0 mg/kg/injection, schedule: Q01DX010 (ip), vehicle: water) was 150 % of control; the T/C (dose: 8.0 mg/kg/injection, schedule: Q01DX010 (ip), vehicle: water) is 170 % of control; the T/C (dose: 10.0 mg/kg/injection, schedule: Q01DX010 (ip), vehicle: saline) was 150 % of control; the T/C (dose: 10.0 mg/kg/injection, schedule: Q01DX010 (ip), vehicle: water) was 90 % of control.
For `OCCNCCNCC[OH2+].OCCNCCNCC[OH2+].[Ni+2].[O-][Cl+3]([O-])([O-])[O-]`, under setting [7], the T/C is 92 % of control.
Turning to `O=c1ccc2cc(-c3ccncc3)cnc2[nH]1`, the T/C (dose: 100.0 mg/kg/injection, schedule: Q04DX002 (ip), vehicle: saline with Tween-80) is 108 % of control.
As to `O=C(NCc1ccco1)C(=O)NCc1ccco1`, the T/C reads like this: under setting [6], 87 % of control; under setting [1], 90 % of control; under setting [3], 98 % of control.
On the same counts, the results for `CCCCOC(=O)c1ccc(OP(=O)(N(C)C)N(C)C)cc1` are 100 % of control, 94 % of control and 87 % of control.
Regarding `NC(=O)C(Cc1ccc(O)cc1)NC(=O)C(N)Cc1c[nH]c2ccccc12` (stereo not drawn) (H-Trp-Tyr-NH2; configuration not given here), the T/C is 92 % of control (dose: 50.0 mg/kg/injection, schedule: Q01DX005 (ip), vehicle: saline); 92 % of control (dose: 100.0 mg/kg/injection, schedule: Q01DX005 (ip), vehicle: saline); 87 % of control (dose: 200.0 mg/kg/injection, schedule: Q01DX005 (ip), vehicle: saline).
For `OC(c1cc(C23CC4CC(CC(C4)C2)C3)nc2c(Cl)cc(Cl)cc12)C1CCCCN1` (stereo unspecified), the T/C reads like this: (dose: 12.5 mg/kg/injection, schedule: Q01DX009 (ip), vehicle: saline with Tween-80) 88 % of control; (dose: 25.0 mg/kg/injection, schedule: Q01DX009 (ip), vehicle: saline with Tween-80) 90 % of control; under setting [6], 89 % of control and 97 % of control.
As for `CCO/C(N)=N/OS(=O)(=O)c1ccccc1`, the T/C by setting is: under setting [2], 99 % of control; under setting [4], 96 % of control; under setting [5], 98 % of control.
Take `CCCCN(CCC#N)CCCC`: the T/C (dose: 25.0 mg/kg/injection, schedule: Q04DX003 (ip), vehicle: saline with Tween-80) was 100 % of control; the T/C (dose: 50.0 mg/kg/injection, schedule: Q04DX003 (ip), vehicle: saline with Tween-80) is 100 % of control; the T/C under setting [2] was 100 % of control.
Turning to `Cc1ccc(CNc2ccc([N+](=O)[O-])cc2)cc1`, the T/C under setting [6] is 104 % of control, the T/C under setting [1] was 90 % of control and the T/C under setting [3] was 104 % of control.
Consider `CCCCNC(C)(C)CSSSCC(C)(C)NCCCC`, for which the T/C reads like this: (dose: 6.25 mg/kg/injection, schedule: Q01DX009 (ip), vehicle: other) 110 % of control; (dose: 12.5 mg/kg/injection, schedule: Q01DX009 (ip), vehicle: other) 86 % of control; (dose: 12.5 mg/kg/injection, schedule: Q04DX003 (ip), vehicle: other) 98 % of control; (dose: 25.0 mg/kg/injection, schedule: Q01DX009 (ip), vehicle: other) 114 % of control; (dose: 25.0 mg/kg/injection, schedule: Q04DX003 (ip), vehicle: other) 117 % of control; (dose: 50.0 mg/kg/injection, schedule: Q01DX009 (ip), vehicle: other) 110 % of control. Besides, the T/C by setting is: (dose: 50.0 mg/kg/injection, schedule: Q04DX003 (ip), vehicle: other) 117 % of control; (dose: 100.0 mg/kg/injection, schedule: Q04DX003 (ip), vehicle: other) 112 % of control.
Take `COc1ccc(OC)c(/C=N/N=C/c2cc(OC)ccc2OC)c1`: the T/C runs as follows: (dose: 100.0 mg/kg/injection, schedule: Q01DX001 (ip), vehicle: saline with Tween-80) 104 % of control; (dose: 200.0 mg/kg/injection, schedule: Q01DX001 (ip), vehicle: saline with Tween-80) 100 % of control; (dose: 400.0 mg/kg/injection, schedule: Q01DX001 (ip), vehicle: saline with Tween-80) 104 % of control.
Consider `CCOC(=O)CCC[P+](c1ccccc1)(c1ccccc1)c1ccccc1`, for which the T/C reads like this: (dose: 5.0 mg/kg/injection, schedule: Q01DX009 (ip), vehicle: saline with Tween-80) 101 % of control; (dose: 10.0 mg/kg/injection, schedule: Q01DX009 (ip), vehicle: saline with Tween-80) 100 % of control; (dose: 13.2 mg/kg/injection, schedule: Q01DX009 (ip), vehicle: saline with Tween-80) 118 % of control; (dose: 20.0 mg/kg/injection, schedule: Q01DX009 (ip), vehicle: saline with Tween-80) 101 % of control and 122 % of control; (dose: 30.0 mg/kg/injection, schedule: Q01DX009 (ip), vehicle: saline with Tween-80) 118 % of control; under setting [6], 113 % of control. Further, the T/C by setting is: (dose: 75.0 mg/kg/injection, schedule: Q01DX009 (ip), vehicle: saline with Tween-80) 152 % of control; under setting [1], 118 % of control; under setting [2], 110 % of control; (dose: 160.0 mg/kg/injection, schedule: Q01DX009 (ip), vehicle: saline with Tween-80) 121 % of control; under setting [4], 115 % of control.
